Results from patent US10519111B2, “UV absorbing compounds, compositions comprising same and uses thereof” (CORAL SUNSCREEN PTY LTD, priority 2013, dated 2019).
Each block holds one molecule with its values, some of them ahead of it.

How the values were obtained:
[1] = Critical wavelength (λcrit), approximate in-house measurement; format: physicochemical
Excerpt: As the precise test for critical wavelength was unable to be replicated exactly by the inventors due to the need for specialist equipment and a specific calibration of the spectrophotometer, these values are only approximate to a degree. […] This represents a highly useful result and so, compounds based around this benzoyl substitution pattern shown, are especially preferred.

[2] = UV absorption properties (λmax, molar extinction coefficient ε, efficiency E 1%, 1 cm); format: physicochemical
[3] = Table 3, compounds from isocyanates or isothiocyanates
[4] = Table 4, N-aryl enamines with isocyanates
[5] = Table 5, acylation of N-t-Bu enamine
[6] = Table 5, values in order of the λmax values
[7] = Table 5, values in order of the λmax values, in M-1 cm-1
[8] = Table 6B, N-tert-butyl compounds

Structure (SMILES): CC1(C)CCN(C(C)(C)C)C=C1C(=O)NCCCCCCNC(=O)C1=CN(C(C)(C)C)CCC1(C)C [drawing 59]
- λcrit ([1]; Table 3): 314 nm
- Ε (1%, 1 cm) ([2]; Table 3): 619
- λmax [2, 3]: 289 nm
- ε ([2]; Table 3, in M-1 cm-1): 31072

Structure (SMILES): CC1(C)CCN(C(C)(C)C)C=C1C(=S)Nc1ccccc1 [drawing 60]
- λcrit ([1]; Table 3): 387 nm
- Ε (1%, 1 cm) ([2]; Table 3): 691
- λmax [2, 3]: 363 nm
- ε ([2]; Table 3, in M-1 cm-1): 20881

Structure (SMILES): CCCCNC(=O)C1=CN(C(C)(C)C)CCC1(C)C [drawing 61]
- λcrit ([1]; Table 3): 312 nm
- Ε (1%, 1 cm) ([2]; Table 3): 799
- λmax [2, 3]: 288 nm
- ε ([2]; Table 3, in M-1 cm-1): 22531

Structure (SMILES): Cc1ccc(NC(=O)C2=CN(C(C)(C)C)CCC2(C)C)cc1NC(=O)C1=CN(C(C)(C)C)CCC1(C)C [drawing 62]
- λcrit ([1]; Table 3): 329 nm
- Ε (1%, 1 cm) ([2]; Table 3): 1174
- λmax [2, 3]: 308 nm
- ε ([2]; Table 3, in M-1 cm-1): 59763

Structure (SMILES): CC1(C)CCN(C(C)(C)C)C=C1C(=O)Nc1ccc(Cc2ccc(NC(=O)C3=CN(C(C)(C)C)CCC3(C)C)cc2)cc1 [drawing 63]
- λcrit ([1]; Table 3): 328 nm
- Ε (1%, 1 cm) ([2]; Table 3): 1105
- λmax [2, 3]: 310 nm
- ε ([2]; Table 3, in M-1 cm-1): 64589

Structure (SMILES): Cc1ccc(S(=O)(=O)NC(=O)C2=CN(C(C)(C)C)CCC2(C)C)cc1 [drawing 64]
- λcrit ([1]; Table 3): 319 nm
- Ε (1%, 1 cm) ([2]; Table 3): 950
- λmax [2, 3]: 304 nm
- ε ([2]; Table 3, in M-1 cm-1): 34588

Structure (SMILES): CC1(C)CCN(C(C)(C)C)C=C1C(=O)Nc1ccc(NC(=O)C2=CN(C(C)(C)C)CCC2(C)C)cc1 [drawing 65]
- λcrit ([1]; Table 3): 346 nm
- Ε (1%, 1 cm) ([2]; Table 3): 1456
- λmax [2, 3]: 322 nm
- ε ([2]; Table 3, in M-1 cm-1): 71962

Structure (SMILES): CC1(C)CCN(C(C)(C)C)C=C1C(=O)Nc1cccc(NC(=O)C2=CN(C(C)(C)C)CCC2(C)C)c1 [drawing 66]
- λcrit ([1]; Table 3): 328 nm
- Ε (1%, 1 cm) ([2]; Table 3): 1129
- λmax [2, 3]: 313 nm
- ε ([2]; Table 3, in M-1 cm-1): 55779

Structure (SMILES): Cc1ccc(N2C=C(C(=O)Nc3ccc(C)c(NC(=O)C4=CN(C(C)(C)C)CCC4(C)C)c3)C(C)(C)CC2)cc1 [drawing 67]
- λcrit ([1]; Table 4): 340 nm
- Ε (1%, 1 cm) ([2]; Table 4): 954
- λmax [2, 4]: 314 nm
- ε ([2]; Table 4, in M-1 cm-1): 51743

Structure (SMILES): CC1(C)CCN(c2ccc(C(C)(C)C)cc2)C=C1C(=O)Nc1ccc(NC(=O)C2=CN(c3ccc(C(C)(C)C)cc3)CCC2(C)C)cc1 [drawing 68]
- λcrit ([1]; Table 4): 354 nm
- Ε (1%, 1 cm) ([2]; Table 4): 1054
- λmax [2, 4]: 331 nm
- ε ([2]; Table 4, in M-1 cm-1): 68095

Structure (SMILES): Cc1ccc(N2C=C(C(=O)Nc3ccccc3)C(C)(C)CC2)cc1 [drawing 69]
- λcrit ([1]; Table 4): 342 nm
- Ε (1%, 1 cm) ([2]; Table 4): 1060
- λmax [2, 4]: 323 nm
- ε ([2]; Table 4, in M-1 cm-1): 33948

Other lines, results leading:

- λcrit ([1]; Table 4): 342 nm
- Ε (1%, 1 cm) ([2]; Table 4): 987
- λmax [2, 4]: 324 nm
- ε ([2]; Table 4, in M-1 cm-1): 35759
Structure (SMILES): CC1(C)CCN(c2ccc(C(C)(C)C)cc2)C=C1C(=O)Nc1ccccc1 [drawing 70]

- λcrit ([1]; Table 5): 322 nm
- λmax [2, 5]: 307 nm
- Ε (1%, 1 cm) [2, 6]: 1095
- ε [2, 7]: 54797
Structure (SMILES): CC1(C)CCN(C(C)(C)C)C=C1C(=O)CCCCCCCCC(=O)C1=CN(C(C)(C)C)CCC1(C)C [drawing 72]

- λcrit ([1]; Table 5): 351 nm
- λmax [2, 5]: 305 nm
- Ε (1%, 1 cm) [2, 6]: 456
- ε [2, 7]: 16425
- shoulder in the λmax column ([2]; Tables 5, 10, 13B): 330 nm
Structure (SMILES): CC1(C)CCN(C(C)(C)C)C=C1C(=O)C1=CN(C(C)(C)C)CCC1(C)C [drawing 73]

- λcrit ([1]; Table 5): 329 nm
- λmax [2, 5]: 313 nm
- Ε (1%, 1 cm) [2, 6]: 869
- ε [2, 7]: 26154
Structure (SMILES): CC1(C)CCN(C(C)(C)C)C=C1C(=O)COc1ccccc1 [drawing 74]

- λcrit ([1]; Table 5): 354 nm
- λmax [2, 5]: 316 nm
- Ε (1%, 1 cm) [2, 6]: 866
- ε [2, 7]: 23556
Structure (SMILES): CC1(C)CCN(C(C)(C)C)C=C1C(=O)c1ccncc1 [drawing 75]

- λcrit ([1]; Table 6A): 362 nm
- E (1%, 1 cm) ([2]; Table 6A): 544
- ε ([2]; Table 6A): 17000 M⁻¹ cm⁻¹
- λmax ([2]; Table 6A, N-isobutyl-C3-benzoyl compounds): 336 nm
Structure (SMILES): CC(C)CN1C=C(C(=O)c2ccc(N(C)C)cc2)C(C)(C)CC1 [drawing 83]

- λcrit ([1]; Table 6B): 360 nm
- E (1%, 1 cm) ([2]; Table 6B): 1127
- λmax [2, 8]: 328 nm
- ε ([2]; Table 6B, in M-1 cm-1): 24907
Structure (SMILES): C=CC(=O)C1=CN(C(C)(C)C)CCC1(C)C [drawing 92]

- λcrit ([1]; Table 6B): 385 nm
- E (1%, 1 cm) ([2]; Table 6B): 781
- λmax [2, 8]: 360 nm
- ε ([2]; Table 6B, in M-1 cm-1): 23198
Structure (SMILES): CC1(C)CCN(C(C)(C)C)C=C1C(=O)/C=C/c1ccccc1 [drawing 93]

- λcrit ([1]; Table 6B): 347 nm
- E (1%, 1 cm) ([2]; Table 6B): 785
- λmax [2, 8]: 317 nm
- ε ([2]; Table 6B, in M-1 cm-1): 27506
Structure (SMILES): CC1(C)CCN(C(C)(C)C)C=C1C(=O)c1ccc(Br)cc1 [drawing 94]

- λcrit ([1]; Table 6B): 361 nm
- E (1%, 1 cm) ([2]; Table 6B): 793
- λmax [2, 8]: 333 nm
- ε ([2]; Table 6B, in M-1 cm-1): 24966
Structure (SMILES): CN(C)c1ccc(C(=O)C2=CN(C(C)(C)C)CCC2(C)C)cc1 [drawing 95]

- λcrit ([1]; Table 6B): 344 nm
- E (1%, 1 cm) ([2]; Table 6B): 949
- λmax [2, 8]: 317 nm
- ε ([2]; Table 6B, in M-1 cm-1): 32556
Structure (SMILES): CC(C)(C)Oc1ccc(C(=O)C2=CN(C(C)(C)C)CCC2(C)C)cc1 [drawing 96]
